According to the NIST ThermoML archive (doi:10.1016/j.tca.2010.06.014):
Values joined by “and” are separate entries in the source; they are usually repeats but may differ in a detail not shown here. Equal values may be shown once.

Settings: Liquid, DSC

O=[N+]([O-])OCC(CO[N+](=O)[O-])O[N+](=O)[O-] [nitroglycerin]
Settings	vapor or sublimation pressure
298.15 K	7e-05 kPa and 7.1e-05 kPa
303.15 K	0.00014 kPa and 0.000137 kPa
313.15 K	0.00046 kPa and 0.000462 kPa
323.15 K	0.0014 kPa and 0.001402 kPa
333.15 K	0.00387 kPa and 0.003866 kPa
343.15 K	0.00981 kPa and 0.009811 kPa
353.15 K	0.02313 kPa
363.15 K	0.05111 kPa
373.15 K	0.1066 kPa
383.15 K	0.211 kPa
393.15 K	0.3988 kPa
403.15 K	0.7228 kPa
413.15 K	1.261 kPa
423.15 K	2.127 kPa
433.15 K	3.475 kPa
443.15 K	5.519 kPa
453.15 K	8.539 kPa
463.15 K	12.9 kPa
473.15 K	19.06 kPa
483.15 K	27.59 kPa
493.15 K	39.2 kPa
503.15 K	54.73 kPa
513.15 K	75.19 kPa
523.15 K	101.77 kPa
